Earlier results on 63 compounds are cited in the CATMoS acute toxicity set (Mansouri et al. 2021).

The nature of the series: rat acute oral toxicity. Particulars: in vivo.
The term LD50 denotes the dose at which mortality reaches 50%. In the case of `O=C1CCc2cc(C(=O)CCN3CCC(Cc4ccccc4)CC3)ccc2N1`, the 50% lethal dose (LD50) was 500 mg/kg.
With `CCCCCCCl`, the LD50 is 7000 mg/kg.
Take `CCOC(=O)[C@H](CCc1ccccc1)N[C@@H](C)C(=O)N1CCC[C@H]1C(=O)O`: the median lethal dose (LD50) was 2970 mg/kg.
With `Cc1ccccc1NCCO`, the LD50 is 2200 mg/kg.
For the compound `S=P(OCCCl)(OCCCl)OCCCl`, the median lethal dose (LD50) is 820 mg/kg.
For the compound `O=[N+]([O-])c1ccc(OP(=O)(OCCCl)OCCCl)cc1`, the median lethal dose (LD50) was 37 mg/kg.
As for `O=C1c2ccccc2C(=O)C1c1ccc(C(F)(F)F)cc1`, the median lethal dose (LD50) is 198 mg/kg.
Take `CN(C)CCN(C)n1cc(-c2ccccc2)c2ccccc21`: the LD50 was 1160 mg/kg.
Consider `CCCc1ccccc1`, for which the LD50 was 6040 mg/kg.
For `CC(=O)NC(N)=S`, the LD50 was 50 mg/kg.
On to `CCCC(N)(CCC)CCC`, for which the median lethal dose (LD50) is 135 mg/kg.
`CC(=O)CNC(C)(C)Cc1ccc(Cl)cc1`: the 50% lethal dose (LD50) is 250 mg/kg.
In the case of `O=C(O)COc1ccccc1`, the LD50 is 1500 mg/kg.
As for `CC(C)COC(=S)S`, the 50% lethal dose (LD50) was 1290 mg/kg.
For the compound `Cc1c(Cl)c(Cl)c(Cl)c2[nH]c(C(F)(F)F)nc12`, the LD50 was 6.49 mg/kg.
On to `CN1CCC2(C)c3cc(OC(=O)NCCCCCCCCN4CCOCC4)ccc3N(C)C12` (stereo not drawn), for which the LD50 was 23 mg/kg.
Regarding `COP(=S)(OC)SCn1nc(Cl)c(C)cc1=O`, the LD50 was 65 mg/kg.
On to `CCS(=O)(=O)Nc1c(C)cc(OC(=O)NC)cc1C`, for which the 50% lethal dose (LD50) is 780 mg/kg.
As to `Cc1cccn2c(=O)c(-c3nnn[nH]3)cnc12`, the LD50 was 687 mg/kg.
As to `CN(C(=O)C[N+](C)(C)C)C(=O)Oc1cccc2c1OC(C)(C)C2`, the LD50 is 33.6 mg/kg.
With `CC(=O)NC(=O)N(C)N=O`, the median lethal dose (LD50) was 200 mg/kg.
In the case of `CCN[C@H](C)Cc1cccc(C(F)(F)F)c1`, the LD50 is 195 mg/kg.
As to `O=C1C(Cl)C(CCl)CN1c1cccc(C(F)(F)F)c1` (stereo not drawn), the LD50 is 3650 mg/kg.
`O=[N+]([O-])c1ccc(Sc2ccc([N+](=O)[O-])cc2)cc1`: the LD50 is 1490 mg/kg.
In the case of `O=C(Cn1ccnc1)c1ccc2c(c1)Cc1ccccc1-2`, the LD50 is 4550 mg/kg.
With `Clc1ccc2c(c1)C(c1ccccc1)=NCc1nncn1-2`, the 50% lethal dose (LD50) is 2500 mg/kg.
Consider `CN1CCC(n2[nH]c(-c3ccccc3)c(Cc3ccccc3)c2=O)CC1`, for which the LD50 was 2700 mg/kg.
Turning to `Nc1cccc(Cl)c1`, the LD50 is 256 mg/kg.
As for `CN1CC(CC(C#N)C(N)=O)CC2c3cccc4[nH]cc(c34)CC21` (stereo not drawn), the median lethal dose (LD50) was 1000 mg/kg.
On to `CC(C)(C)N=NC(C)(C)O`, for which the LD50 is 329 mg/kg.
As for `O=c1[nH]c2ccc(Br)cc2o1`, the 50% lethal dose (LD50) was 1000 mg/kg.
For the compound `O=C(O)COc1nn(Cc2ccccc2)c2ccccc12`, the LD50 was 1200 mg/kg.
Consider `CC(=O)OCC(COC(C)=O)OC(C)=O`, for which the LD50 was 3000 mg/kg.
Turning to `CCCCC(CC)COC(C)=O` (stereo not drawn), the median lethal dose (LD50) is 3000 mg/kg.
Turning to `O=C(O)[C@H](O)[C@@H](O)[C@H](O)[C@H](O)CO`, the median lethal dose (LD50) was 10400 mg/kg.
As to `CN=c1oc2ccccc2n1C`, the 50% lethal dose (LD50) is 1000 mg/kg.
With `CCOc1ccccc1N1CCN(CCC=Cc2ccc3[nH]c(=O)ccc3c2)CC1`, the median lethal dose (LD50) was 500 mg/kg.
Regarding `O=C(O)CCc1nc2ccccc2[nH]1`, the LD50 is 1700 mg/kg.
In the case of `C=CP(=O)(OCCCl)OCCCl`, the LD50 is 990 mg/kg.
With `Cc1ccc(C2=CCN(CC=Cc3ccc4c(c3)CCC(=O)N4)CC2)cc1`, the median lethal dose (LD50) was 500 mg/kg.
Regarding `CCC(C)OC(CBr)c1cccc(Cl)c1` (stereo not drawn), the LD50 is 250 mg/kg.
Turning to `CN(C)CCC=C1c2ccccc2CCc2ccccc21`, the median lethal dose (LD50) is 320 mg/kg.
On to `CCCSP(=O)(OCC)Oc1c(Cl)cc(Cl)cc1Cl` (stereo not drawn), for which the LD50 is 151 mg/kg.
Consider `CC=CC=CC=CC(C)=O`, for which the LD50 is 4300 mg/kg.
Regarding `CN(C)N=Nc1ccc(Cl)cc1`, the median lethal dose (LD50) is 362 mg/kg.
Regarding `C1CCCC1`, the LD50 is 11400 mg/kg.
`N#CC=Cc1ccccc1`: the LD50 was 4150 mg/kg.
With `NCCCOCCCCOCCCN`, the 50% lethal dose (LD50) is 3450 mg/kg.
For `CC(C)=CC1C(C(=O)OC2CC(=O)C(C3C=CCC3)=C2C)C1(C)C` (stereo not drawn), the median lethal dose (LD50) was 1410 mg/kg.
With `OCC=CCO`, the median lethal dose (LD50) was 1250 mg/kg.
With `COc1ccc(C(C)=O)cc1`, the LD50 was 1720 mg/kg.
Regarding `COc1ccc(C(Oc2ccccc2)C2=NCCCN2)cc1` (stereo not drawn), the median lethal dose (LD50) was 1000 mg/kg.
In the case of `CCN(CC)CCNC(=O)c1cc([N+](=O)[O-])c(N(C)C)cc1OC`, the LD50 is 856 mg/kg.
Turning to `CC(C)C(NC(=O)COc1ccc(Cl)cc1Cl)C(=O)O` (stereo not drawn), the median lethal dose (LD50) is 750 mg/kg.
Regarding `O=NN(c1cccc(C(F)(F)F)c1)c1ccccc1C(=O)O`, the 50% lethal dose (LD50) was 900 mg/kg.
On to `CCCCCCCCCCCC[N+](C)(C)Cc1ccc(Cl)c(Cl)c1`, for which the LD50 is 730 mg/kg.
On to `CCCN(CCC)C(=O)SCc1ccccc1`, for which the LD50 is 1820 mg/kg.
For the compound `COP(=S)(OC)SCCSc1ccc(Cl)cc1`, the LD50 was 100 mg/kg.
With `O=C(Nc1ccccc1)c1ccccc1I`, the LD50 was 6400 mg/kg.
In the case of `C1CN1c1nc(N2CC2)nc(N2CC2)n1`, the median lethal dose (LD50) is 13 mg/kg.
Turning to `CCN(Cc1ccccc1)N=O`, the LD50 is 250 mg/kg.
Take `CN(C)C1CCCCC1`: the 50% lethal dose (LD50) is 348 mg/kg.
As for `CC(C)(C)NCC(O)COc1cc(Cl)ccc1Cl` (stereo not drawn), the median lethal dose (LD50) is 1300 mg/kg.
